Reference: patent US20080182880A1, “PIOGLITAZONE COMPOSITION” (priority 2006, published 2008)
Where two headings read alike, the source gives them in different places.

Assay: Comparative bioavailability of Trial 2 of Example 4 and ACTOS tablets 45 mg, open label randomized cross-over single dose study, fasting, 55 subjects
Format: in vivo
Conditions: human, plasma, oral, calculated from Table 6 results, single dose to humans
Protocol: In determining bioequivalence, for example, between two products such as a commercially available product and a proposed product, pharmacokinetic studies are conducted whereby each of the preparations is administered in a crossover study to volunteer subjects. Serum plasma samples are obtained at regular intervals and assayed for parent drug (or occasionally metabolite) concentrations. For a pharmacokinetic comparison, the plasma concentration data are used to assess key pharmacokinetic parameters such as area under the plasma concentration-time curve (AUC), peak concentration (Cmax) and time to peak plasma concentration (Tmax).
R represents reference product, i.e., ACTOS tablets 45 mg.
Study design: Open label randomized cross-over single dose study under fasting conditions.

AUC(0-inf) (read-out: therapeutically equivalent range of plasma pioglitazone AUC0-∞): 12.3 to 19.1 µg·h/mL
AUC(0-inf) (read-out: therapeutically equivalent range of plasma pioglitazone AUC0-∞T): 11.9 to 18.5 µg·h/mL
Cmax (read-out: therapeutically equivalent range of plasma pioglitazone Cmax): 1.03 to 1.61 µg/mL
SMILES: CCc1ccc(CCOc2ccc(CC3SC(=O)NC3=O)cc2)nc1 (racemic) [Pioglitazone, (±)-5-[[4-[2-(5-ethyl-2-pyridinyl)ethoxy]phenyl]methyl]-2,4-]thiazolidinedione]
